Results as given in patent US7951816B2, “Compound containing basic group and use thereof” (Ono Pharmaceutical Co., Ltd., priority 2004, dated 2011).

What was measured:
CXCR4 = biological target: T1, CXCR4 (Homo sapiens, UniProt P61073); test: Study for inhibition of binding human SDF-1 to CEM cells (125I-SDF-1); conditions: 125I-SDF-1 binding to CEM cells
T1 construct: a human T cell strain in which CXCR4 is known to be expressed; endogenous in cells; host or cells: CEM cells (human T cell line), whole cells
T1 sequence (P61073 whole entry): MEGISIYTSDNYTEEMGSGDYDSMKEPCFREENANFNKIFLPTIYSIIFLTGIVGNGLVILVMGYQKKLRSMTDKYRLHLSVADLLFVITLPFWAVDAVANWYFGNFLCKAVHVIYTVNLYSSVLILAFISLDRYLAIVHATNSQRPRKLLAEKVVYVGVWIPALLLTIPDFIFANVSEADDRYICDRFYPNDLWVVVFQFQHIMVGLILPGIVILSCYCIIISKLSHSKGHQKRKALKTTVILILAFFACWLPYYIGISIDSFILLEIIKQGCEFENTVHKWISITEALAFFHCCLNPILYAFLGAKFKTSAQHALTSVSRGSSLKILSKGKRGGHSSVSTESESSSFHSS
Text: Specifically, as a system of screening a compound that inhibits the binding between SDF-1 and CXCR4, for example a system of measuring the binding between iodine-labeled SDF-1 and a human T cell strain in which CXCR4 is known to be expressed is operable. The identical idea is possible since macrophage (R5) HIV and RANTES, MIP-1α, and MIP-1β all bind to CCR5.
Study for Inhibition of Binding Human SDF-1 to CEM Cells
To human T cell strain CEM cells in a binding buffer (containing HEPES and BSA), the test compound and ^125I-SDF-1 (NEN) were added and the mixture was incubated at 4° C. for 60 minutes. The reacted CEM cells were rapidly filtrated with a GF/B membrane filter plate (Packard) to adsorb. The plate was washed with PBS three times and then dried. Microscint+20 (Packard) was added thereto. An amount of the radioactivity bound to the CEM cells was measured using Top Count (Packard) and inhibition (%) of the test compound was calculated according to the following equation: Inhibition={(Et−Ea)/(Et−Ec)}×100
Et: amount of radioactivity when the test compound is not added,
Ec: amount of radioactivity when non-radioactive SDF-1 (Pepro Tech) is added in an amount of 1000 times as much as ^125I-SDF-1 as a test compound, and
Ea: amount of radioactivity when the test compound is added.

[1] = Influence on blood pressure and heart rate in urethane-anesthetized rat, intravenous cumulative dosing; type: in vivo
Text: Measuring of Influence of a Compound of the Present Invention on Blood Pressure and Heart Rate
A rat was anesthetized with urethane (1.2 g/kg subcutaneous administration). After neck midline dissection, a catheter for measuring blood pressure was inserted into a right common carotid artery. Then, after dissecting inguinal region, a catheter for chemical injection was inserted into a femoral vein and fixed. A catheter for measurement of blood pressure was connected to a pressure transducer and then the pressure waveform was recorded on a thermal writing pen recorder through an amplifier for strain compression (AP-641G (manufactured by NIHON KOHDEN CORPORATION)). In this case, regarding a heart rate, a value through an cardiotachometer (AT-601G (manufactured by NIHON KOHDEN CORPORATION)) using the pressure waveform obtained from the amplifier for strain compression as a trigger was recorded on a thermal writing pen recorder. The test compound was dissolved in a 10% solubilizing agent/physiological saline solution (volume ratio of polyoxyethylene hydroxystearate:propylene glycol:physiological saline=7:3:190) so as to adjust the concentration to 0.1, 0.3, 1, 3 or 10 mg/mL to prepare solutions. Each solution was intravenous administered at 1 mL/Kg through the […] over about 10 seconds. Accumulative administration of stepwise increasing of a dosage was carried out to an individual.

Row | Compound | IC50 (CXCR4) [nM] | effect of decreasing blood pressure ([1]; 3 mg/kg or less) | rate of increase in the heart rate ([1]; 10 mg/kg) [%] | influence on the heart rate ([1]; low dosage)
1 | CCCN(CCC)CCCCNCc1ccc(C(=O)N(Cc2ncc[nH]2)Cc2ncc[nH]2)cc1 [Compound 10, 4-({[4-(dipropylamino)butyl]amino}methyl)-N,N-bis(1H-imidazol-2-ylmethyl)benzamide] | 27 | – | – | –
2 | CCCN(CCC)CCCCNCc1ccc(CN(Cc2ncc[nH]2)C(=O)c2ncc[nH]2)cc1 [Compound 19, N-[4-({[4-(dipropylamino)butyl]amino}methyl)benzyl]-N-(1H-imidazol-2-ylmethyl)-1H-imidazole-2-carboxamide] | – | not recognized | 2 | no influence on the heart rate
